Measured values as given in article PMC12471299, “Secondary Metabolites of the Marine Sponge-Derived Fungus Aspergillus subramanianii 1901NT-1.40.2 and Their Antimicrobial and Anticancer Activities” (Marine Drugs, 2025).
Like-named read-outs stand apart in the source and are kept apart here.

Columns and labels:
[1] = tested on: MCF-10A breast epithelial cells; assay: Cell viability assay (MTT); assay type: cell-based, human; conditions: MCF10A
Text: (§1) Rat cardiomyocyte H9c2 cells were kindly provided by Prof. Dr. Gunhild von Amsberg from the Martini-Klinik Prostate Cancer Center, University Hospital Hamburg-Eppendorf, Hamburg, Germany. The human HaCaT keratinocyte cell line was kindly provided by Prof. N. Fusenig (Cancer Research Centre, Heidelberg, Germany). Non-cancerous human breast epithelial MCF-10A cells were kindly provided by Dr. Irina Zhitnyak (N. N. Blokhin National Medical Research Center of Oncology, Moscow, Russia). Human breast cancer MCF-7 HTB-22 and MDA-MB-231 cells were obtained from the ATTC (Manassas, VA, USA).
(§2) H9c2 and HaCaT cells were cultured in DMEM with 10% fetal bovine serum and 1% penicillin/streptomycin (BioloT, St. Petersburg, Russia). MCF-7 and MDA-MB-231 cells were cultured in MEM (BioloT, St. Petersburg, Russia) with 10% fetal bovine serum (FBS) and 1% penicillin/streptomycin (BioloT, St. Petersburg, Russia). MCF 10A cells were cultured in DMEM F12 medium (BioloT, St. Petersburg, Russia) supplemented with 20% FBS, 20 ng/mL hrEGF (Sci-Store, Moscow, Russia), and 1% penicillin/streptomycin (BioloT, St. Petersburg, Russia). All cells were cultured at 37 °C in a humidified atmosphere containing 5% CO2.
(§3) H9c2 cells were seeded at a concentration of 3 × 10^3 cells/well. MCF-10A, MCF-7, and MDA-MB-231 cells were seeded at 5 × 10^3 cells/well, and HaCaT cells were seeded at 1 × 10^4 cells/well. The experiments were initiated after 24 h.
(§4) Compounds at concentrations up to 100 µM were added to the wells for 24h or 48 h, and the viability of the cells was measured using an MTT (3-(4,5-dimethylthiazol-2-yl)-2,5-diphenyltetrazolium bromide) assay, which was performed according to the manufacturer’s instructions (Sigma-Aldrich, Munich, Germany). […] DMSO was used as a control. The results are presented as percentages of the control data.

[2] = tested on: MCF-7 breast cancer cells; assay: Cell viability assay (MTT); assay type: cell-based, human
Text: as §1, §2, §3, §4

[3] = tested on: MDA-MB-231 breast cancer cells; assay: Cell viability assay (MTT); assay type: cell-based, human; conditions: for IC50: read-out: Cytotoxicity IC50
Text: as §1, §2, §3, §4

HaCaT keratinocytes = assay: Cell viability assay (MTT); assay type: cell-based, human; conditions: for IC50: read-out: Cytotoxicity IC50
Text: as §1, §2, §3, §4

Candida albicans KMM 455 [4] = assay: Antimicrobial assay, growth inhibition (optical density); assay type: cell-based; conditions: C. albicans, 18 h
In short: (§5)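 Strains were precultured on Mueller Hinton agar at 37 °C for 24 h, then exposed to compound at up to 100 µM. Growth was read as OD620 after 18 h; 18 h biofilm formation was quantified with MTT at OD570. Values are MIC50, the lowest concentration cutting growth or biofilm by 50% versus 1% DMSO/PBS control.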

[5] = tested on: Staphylococcus aureus ATCC 21027; assay: as above; assay type: cell-based
In short: as §5

[6] = tested on: Escherichia coli VKPM (B-7935); assay: as above; assay type: cell-based
In short: as §5

[7] = tested on: non-small cell lung cancer NCIH460 cells; conditions: cited from earlier work
H9c2 cardiomyocytes = assay: Cell viability assay (MTT); assay type: cell-based, rat; conditions: for IC50: read-out: Cytotoxicity IC50
Text: as §1, §2, §3, §4

[8] = tested on: breast cancer MCF-7 cells; conditions: cited from earlier work
Candida albicans KMM 455 [9] = assay: Biofilm formation assay (MTT); assay type: cell-based
In short: (§6)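 Cultures grown 24 h at 37 °C on Mueller Hinton agar; compound applied at concentrations of 100 µM and below. After 18 h, growth read at OD620 and biofilm via MTT at OD570; results expressed as percent of 1% DMSO/PBS control and given as MIC50.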

[10] = tested on: Staphylococcus aureus ATCC 21027; assay: Biofilm formation assay (MTT); assay type: cell-based
In short: as §5

[11] = tested on: Escherichia coli VKPM (B-7935); assay: Biofilm formation assay (MTT); assay type: cell-based
In short: as §6

CNS glioma SF-268 cells = conditions: cited from earlier work

Substance: asterredione [Compound 9]
- cell viability ([1]; 24 h, 1.0 µM): 100.7 ± 0.9 % of control
- cell viability ([1]; 24 h, 10.0 µM): 97.5 ± 3.5 % of control
- cell viability ([1]; 24 h, 100.0 µM): 66.3 ± 3.6 % of control
- IC50 ([1]; 24 h, read-out: Cytotoxicity IC50): > 100 µM
- cell viability ([1]; 48 h, 1.0 µM): 96.7 ± 5.1 % of control
- cell viability ([1]; 48 h, 10.0 µM): 79.4 ± 4.3 % of control
- cell viability ([1]; 48 h, 100.0 µM): 61.5 ± 1.9 % of control
- IC50 ([1]; 48 h, read-out: Cytotoxicity IC50): > 100 µM
- IC50 ([1]; time not stated, read-out: half-maximal concentration (IC50), viability): > 100 µM
- IC50 ([2]; MCF-7, 24 h, read-out: Cytotoxicity IC50): 51.3 ± 2.6 µM
- cell viability ([2]; MCF-7, 48 h, 1.0 µM): 97.8 ± 1.1 % of control
- cell viability ([2]; MCF-7, 48 h, 10.0 µM): 78.6 ± 7.6 % of control
- cell viability ([2]; MCF-7, 48 h, 100.0 µM): 21.2 ± 6.6 % of control
- IC50 ([2]; MCF-7, 48 h, read-out: Cytotoxicity IC50): 55.1 ± 3.9 µM
- IC50 ([2]; MCF-7, time not stated, read-out: IC50, viability): ~50 µM
- cell viability ([3]; MDA-MB-231, 24 h, 1.0 µM): 96.3 ± 3.2 % of control
- cell viability ([3]; MDA-MB-231, 24 h, 10.0 µM): 106.3 ± 9.9 % of control
- cell viability ([3]; MDA-MB-231, 24 h, 100.0 µM): 82.5 ± 1.3 % of control
- IC50 ([3]; MDA-MB-231, 24 h): > 100 µM
- cell viability ([3]; MDA-MB-231, 48 h, 1.0 µM): 103.2 ± 0.9 % of control
- cell viability ([3]; MDA-MB-231, 48 h, 10.0 µM): 90.5 ± 2.7 % of control
- cell viability ([3]; MDA-MB-231, 48 h, 100.0 µM): 52.9 ± 3.4 % of control
- IC50 ([3]; MDA-MB-231, 48 h): ≥ 100 µM
- decrease of viability (HaCaT keratinocytes; 100 µM for 48 h): 23%
- cell viability (HaCaT keratinocytes; 24 h, 1.0 µM): 88.7 ± 3.0 % of control
- cell viability (HaCaT keratinocytes; 24 h, 10.0 µM): 79.2 ± 2.1 % of control
- cell viability (HaCaT keratinocytes; 24 h, 100.0 µM): 62.0 ± 6.9 % of control
- IC50 (HaCaT keratinocytes; 24 h): > 100 µM
- cell viability (HaCaT keratinocytes; 48 h, 1.0 µM): 99.5 ± 2.3 % of control
- cell viability (HaCaT keratinocytes; 48 h, 10.0 µM): 92.6 ± 11.2 % of control
- cell viability (HaCaT keratinocytes; 48 h, 100.0 µM): 77.1 ± 1.5 % of control
- IC50 (HaCaT keratinocytes; 48 h): > 100 µM
- toxicity (HaCaT keratinocytes; at 10 µM): not toxic
- MIC50 (Candida albicans KMM 455 [4]): >100 µM
- MIC50 ([5]; S. aureus, 18 h): >100 µM
- effect on S. aureus growth ([5]; at / up to 100 µM): did not affect
- MIC50 ([6]; E. coli, 18 h): >100 µM
- effect on E. coli growth ([6]; at / up to 100 µM): did not affect
- cytotoxic activity [7]: moderate cytotoxic activity
- decrease of viability (H9c2 cardiomyocytes; H9c2, 100 µM for 48 h): 38%
- cell viability (H9c2 cardiomyocytes; H9c2, 24 h, 1.0 µM): 101.1 ± 6.6 % of control
- cell viability (H9c2 cardiomyocytes; H9c2, 24 h, 10.0 µM): 101.7 ± 3.2 % of control
- cell viability (H9c2 cardiomyocytes; H9c2, 24 h, 100.0 µM): 73.1 ± 5.1 % of control
- IC50 (H9c2 cardiomyocytes; H9c2, 24 h): > 100 µM
- cell viability (H9c2 cardiomyocytes; H9c2, 48 h, 1.0 µM): 90.2 ± 7.1 % of control
- cell viability (H9c2 cardiomyocytes; H9c2, 48 h, 10.0 µM): 93.0 ± 10.4 % of control
- cell viability (H9c2 cardiomyocytes; H9c2, 48 h, 100.0 µM): 62.2 ± 10.4 % of control
- IC50 (H9c2 cardiomyocytes; H9c2, 48 h): > 100 µM
- toxicity (H9c2 cardiomyocytes; H9c2, at 10 µM): not toxic
- cytotoxic activity [8]: moderate cytotoxic activity
- Biofilm formation, MIC50 (Candida albicans KMM 455 [9]; C. albicans, 18 h): >100 µM
- prevention of C. albicans biofilm formation (Candida albicans KMM 455 [9]; at 100 µM): 41.18 ± 4.91%
- Biofilm formation, MIC50 ([10]; S. aureus, 18 h): >100 µM
- effect on S. aureus biofilm formation ([10]; at / up to 100 µM): did not affect
- Biofilm formation, MIC50 ([11]; E. coli, 18 h): >100 µM
- effect on E. coli biofilm formation ([11]; at / up to 100 µM): did not affect
- cytotoxic activity (CNS glioma SF-268 cells): moderate cytotoxic activity
